Entries after “also recorded” stand apart in the source; their conditions may differ. Structures can show the parent of a compound that is named as a salt.

Data on five molecules can be found in patent publication US20090163551A1, “Compositions and Methods for Treating Diseases” (Novartis AG, priority 2006, published 2009).

One assay has as its system 5-HT receptors. In words: 5-HT concentration-response curve in antral circular muscle strips. It counts as cell-based, rat. The following applies: 5-HT contraction.
Assay [1] concerns circular muscle strips from the gastric antrum. Put plainly: Contractile responses to EFS of enteric nerves in antral muscle strips of pretreated indomethacin rats. Type of assay: in vivo, rat. The following applies: for Regression Analysis Slope: linear regression of EFS (0.5 ms, 1-15 Hz) frequency-response, indomethacin-treated rats, mean ± SEM, 5-6 rats per group.
Assay [2] shares this test system. In words: Contractile responses to carbachol in antral circular muscle strips of pretreated indomethacin rats. The following applies: strips from indomethacin-treated rats pretreated with tegaserod 1 mg/kg, omeprazole 20 mg/kg; vs vehicle. It counts as in vivo, rat.
The test system is the same in assay [3]. In words: Contractile response to KCl (80 mM) in antral circular muscle strips of pretreated indomethacin rats. The following applies: strips from indomethacin-treated rats pretreated with tegaserod 1 mg/kg, omeprazole 20 mg/kg, vs vehicle. Type of assay: in vivo, rat.
Assay [4] concerns myeloperoxidase (MPO) activity. Put plainly: Mucosal myeloperoxidase activity after indomethacin. It counts as in vivo, rat. The following applies: rats; tegaserod 1 mg/kg, omeprazole 20 mg/kg i.p. pretreatment; glandular stomach 6 h after indomethacin 50 mg/kg. As for the experimental part: (§1) Prior to the experiment the rats were fasted overnight with free access to water. On the day of experiment the rats received intragastric gavage of 50 mg/kg indomethacin dissolved in 2% NaCO3 and brought to a volume of 1.5 mL in saline (pH 6.8). Indomethacin was given at 7:30 A.M. and the animals were then placed in their home cage with free access to food and water. The rats were euthanized 6 h post-indomethacin infusion, the stomach was isolated and placed in Ca^2+-free Krebs buffer aerated with 95% O2 and 5% CO2.
Drugs were prepared fresh for each experiment and stored at 4° C. between treatments. […] A separate control group received treatment with propylene glycol only. […]
(§2) The stomach was cut along the small curvature, cleansed of ingested food and the fundus was separated from the glandular portion of the stomach. […] The total length of hemorrhagic lesions, which were approximately 1 mm wide, was measured and served as an index of ulceration. […]
Following dissection, the mucosal tissue was snap-frozen in liquid nitrogen and stored at −80° C. and MPO activity was assayed simultaneously. […] MPO activity was expressed as equivalent to the activity of the relative standard (ng of HRP) converting the same amount of TMB substrate for 10 min at room temperature. […]

In assay [5] the test system is rat model of indomethacin-induced gastric mucosal ulceration. Put plainly: Indomethacin-induced gastric mucosal ulceration (ulceration index). Type of assay: in vivo. The following applies: rats; tegaserod 1 mg/kg, omeprazole 20 mg/kg i.p. b.i.d. one day before and 30 min prior to indomethacin 50 mg/kg intragastric; 6 h post-indomethacin; vs vehicle. As to the method:
Male Sprague-Dawley rats (Charles River, Laboratories, Wilmington, Mass.) weighing 250-300 g were housed two in a cage at standard conditions (21-23° C., controlled humidity, 12 hour light/dark cycle). The animals were allowed to acclimate for one week prior to initiation of drug treatment. The experimental procedures were approved by the Animal Care and Use Committees at the V.A. Medical Center and the University of Oklahoma Health Science Center, Oklahoma City, Okla.
as §1
Drugs were prepared fresh for each experiment and stored at 4° C. between treatments. […]
as §2

Assay [6] has as its system circular muscle strips from the gastric antrum. Put plainly: Contractile responses to 5-HT in antral circular muscle strips of pretreated indomethacin rats. Type of assay: in vivo, rat. The following applies: strips from indomethacin-treated rats pretreated with tegaserod 1 mg/kg, omeprazole 20 mg/kg; vs vehicle.
Assay [7] has as its system smooth muscle muscarinic receptors. In words: Carbachol concentration-response curve in antral circular muscle strips. It counts as cell-based, rat. The following applies: carbachol contraction.
A further assay deals with enteric nerves. Type of assay: cell-based, rat.
[8] abbreviates: second group not named in the sentence (indomethacin-treated rats receiving vehicle).
The mark [9] stands for this setting: EFS 0.5 ms, 1-15 Hz, strips from indomethacin-treated rats pretreated with tegaserod 1 mg/kg, omeprazole 20 mg/kg.
Setting [10] is: strips from vehicle pretreated rats receiving indomethacin.

By Hill slope is commonly meant a measure of the steepness of the concentration-response curve. As to `NCCc1c[nH]c2ccc(O)cc12` [5-HT, 5-hydroxytryptamine creatinine sulfate], in the assay with 5-HT receptors (setting [8]), the Hill slope is 0.65 and the “log EC50” value was found to be 6.839. In the assay on 5-HT receptors (strips from naïve rats), the Hill slope was determined as 0.48 and the “log EC50” value is listed as 6.299.

For `COc1ccc2[nH]c([S+]([O-])Cc3ncc(C)c(OC)c3C)nc2c1` (stereo not drawn) [Omeprazole, omeprazole], the “Regression Analysis Slope” value in [1] worked out at 78.8 ± 9.5.

As for `CCCCCNC(=N)NN=Cc1c[nH]c2ccc(OC)cc12` [Tegaserod, 3-(5-methoxy-1H-indol-3-ylmethylene)-N-pentylcarbazimidamide], the maximal carbachol-induced contraction result in assay [2] is listed as “not significantly different”. For the same molecule, in assay [1] (setting [9]), the “increase of contractile responses to EFS” value is on record as “prevented the increase of contractile responses to EFS” and the “linear frequency-response relationship of EFS contractile responses” value was “preserved the linear frequency-response relationship; also recorded: protected the linear increase in the amplitude of contractile responses”. The “Indomethacin-induced hypercontractility (KCl, carbachol, 5-HT, EFS; overall statement)” value in [1] (antral circular muscle strips, tegaserod 1 mg/kg, omeprazole 20 mg/kg pretreatment) is reported as “significantly attenuated”. The “Regression Analysis Slope” value in assay [1] worked out at 51.9 ± 5.1. Moreover, the “amplitude of KCl-induced contractions” value in assay [3] was “showed a tendency to prevent the development of hypercontractile responses to KCl, however in the effect of neither of the drugs reached statistical significance”. Also, the “mucosal MPO activity” value in [4] is “reduced gastric ulceration and mucosal inflammation; also recorded: inhibited MPO activity to levels that were not significantly different from those in naïve animals”. Moreover, the “formation of gastric lesions (ulceration index)” value in assay [5] is “reduced gastric ulceration; also recorded: significantly reduced the formation of gastric lesions”. Moreover, the “amplitude of the maximal response to 5-HT” value in assay [6] is “significant reduction”.

In turn, `C[N+](C)(C)CCOC(N)=O.[Cl-]` [carbachol, carbamylcholine chloride] returned a Hill slope in [7] (strips from naïve rats) of 1.07. For the same molecule, in assay [7] (setting [10]), the Hill slope was 1.11 and the “log EC50” value is recorded as −7.32.

With `NC1=N[C@H](O)[C@H]2[C@H]3O[C@]4(O)O[C@@H]([C@@H](O)[C@@]2(N1)[C@@H]4O)[C@]3(O)CO` [tetrodotoxin], the “inhibitory and excitatory responses to EFS” value in the assay with enteric nerves was “abolished”.
